These results are taken from ChEMBL document CHEMBL4219122, “Synthesis and biological evaluation of histone deacetylase and DNA topoisomerase II-Targeted inhibitors” (Bioorg Med Chem, 2018).

The source made the active and inactive calls. The rule behind the calls is not given here. Where only a bound is given, the exact number is not on record here.

In test [1] the target is T1, Protein deacetylase HDAC6 (Mus musculus, UniProt Q9Z2V5).
T1 sequence (Q9Z2V5 whole entry): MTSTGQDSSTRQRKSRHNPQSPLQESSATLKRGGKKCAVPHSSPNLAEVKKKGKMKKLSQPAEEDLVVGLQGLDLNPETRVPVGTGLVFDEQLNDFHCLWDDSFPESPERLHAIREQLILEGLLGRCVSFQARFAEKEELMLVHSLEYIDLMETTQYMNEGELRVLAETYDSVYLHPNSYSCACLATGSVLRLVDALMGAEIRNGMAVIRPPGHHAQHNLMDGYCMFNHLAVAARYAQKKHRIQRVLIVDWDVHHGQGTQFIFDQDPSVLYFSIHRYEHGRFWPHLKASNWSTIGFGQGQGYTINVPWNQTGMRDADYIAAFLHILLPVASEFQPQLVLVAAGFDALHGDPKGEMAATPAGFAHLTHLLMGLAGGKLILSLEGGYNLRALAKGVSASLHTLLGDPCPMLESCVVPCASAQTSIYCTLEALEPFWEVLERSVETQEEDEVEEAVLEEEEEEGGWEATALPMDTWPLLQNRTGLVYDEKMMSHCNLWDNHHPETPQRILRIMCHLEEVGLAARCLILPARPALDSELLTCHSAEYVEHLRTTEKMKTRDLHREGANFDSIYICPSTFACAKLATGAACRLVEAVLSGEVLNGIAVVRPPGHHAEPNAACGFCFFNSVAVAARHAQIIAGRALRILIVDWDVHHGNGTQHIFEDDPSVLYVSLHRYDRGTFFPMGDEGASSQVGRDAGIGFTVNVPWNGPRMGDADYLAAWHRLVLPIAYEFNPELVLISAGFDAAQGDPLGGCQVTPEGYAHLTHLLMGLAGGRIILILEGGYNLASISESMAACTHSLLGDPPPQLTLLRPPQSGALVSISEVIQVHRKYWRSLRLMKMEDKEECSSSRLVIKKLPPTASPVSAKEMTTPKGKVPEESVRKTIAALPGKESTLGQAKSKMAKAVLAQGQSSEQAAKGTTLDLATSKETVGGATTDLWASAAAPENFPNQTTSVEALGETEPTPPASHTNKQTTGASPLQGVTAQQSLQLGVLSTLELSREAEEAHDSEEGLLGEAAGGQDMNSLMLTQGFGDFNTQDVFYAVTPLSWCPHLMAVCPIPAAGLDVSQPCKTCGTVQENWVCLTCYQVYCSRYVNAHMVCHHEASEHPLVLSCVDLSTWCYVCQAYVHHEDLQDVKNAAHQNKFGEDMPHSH
The test can be described thus: Inhibition of recombinant mouse HDAC6 expressed in HEK293T cells co-expressing mouse HDA2 using Ac-KGLGK(Ac)-MCA as substrate after 30 mins in presence of DTT by fluorescence assay.

Test [2] addresses T2, Histone deacetylase 1 (Homo sapiens, UniProt Q13547). As to the kind of experiment: Inhibition of recombinant human HDAC1 expressed in HEK293T cells using Ac-KGLGK(Ac)-MCA as substrate after 30 mins in presence of DTT by fluorescence assay.
Test [3] relates to MCF7. As to the kind of experiment: Growth inhibition of human MCF7 cells after 48 hrs by sulforhodamine B-based colorimetric assay. The format is functional, cell-based. The settings on record: MCF7, 48 h; for GI50: read-out: GI50.
Test [4] has as its system DU-145. As to the kind of experiment: Growth inhibition of human DU145 cells after 48 hrs by sulforhodamine B-based colorimetric assay. The settings on record: DU-145, 48 h; for GI50: read-out: GI50. Format: functional, cell-based.
In test [5] the test system is HCT-116. As to the kind of experiment: Growth inhibition of human HCT116 cells after 48 hrs by sulforhodamine B-based colorimetric assay. Format: functional, cell-based. The settings on record: HCT-116, 48 h; for GI50: read-out: GI50.
Test [6] deals with T2, Histone deacetylase 1. As to the kind of experiment: Inhibition of recombinant human HDAC1 expressed in HEK293T cells at 10 uM using Ac-KGLGK(Ac)-MCA as substrate after 30 mins in presence of DTT by fluorescence assay.
Test [7] concerns the target T3, DNA topoisomerase 2-alpha (Homo sapiens, UniProt P11388). As to the kind of experiment: Inhibition of human placenta topoisomerase 2alpha assessed as reduction in pBR322 supercoiled DNA relaxation after 30 mins by ethidium bromide staining based agarose gel electrophoresis.
The target in test [8] is T3, DNA topoisomerase 2-alpha. As to the kind of experiment: Inhibition of human topoisomerase-2 alpha-mediated kinetoplast DNA decatenation at 200 uM after 30 mins by ethidium bromide staining based agarose gel electrophoresis.

As usually defined, the IC50 is the concentration needed to halve the response being measured. Usually GI50 stands for the concentration that inhibits growth by half.

T3 sequence (P11388 whole entry): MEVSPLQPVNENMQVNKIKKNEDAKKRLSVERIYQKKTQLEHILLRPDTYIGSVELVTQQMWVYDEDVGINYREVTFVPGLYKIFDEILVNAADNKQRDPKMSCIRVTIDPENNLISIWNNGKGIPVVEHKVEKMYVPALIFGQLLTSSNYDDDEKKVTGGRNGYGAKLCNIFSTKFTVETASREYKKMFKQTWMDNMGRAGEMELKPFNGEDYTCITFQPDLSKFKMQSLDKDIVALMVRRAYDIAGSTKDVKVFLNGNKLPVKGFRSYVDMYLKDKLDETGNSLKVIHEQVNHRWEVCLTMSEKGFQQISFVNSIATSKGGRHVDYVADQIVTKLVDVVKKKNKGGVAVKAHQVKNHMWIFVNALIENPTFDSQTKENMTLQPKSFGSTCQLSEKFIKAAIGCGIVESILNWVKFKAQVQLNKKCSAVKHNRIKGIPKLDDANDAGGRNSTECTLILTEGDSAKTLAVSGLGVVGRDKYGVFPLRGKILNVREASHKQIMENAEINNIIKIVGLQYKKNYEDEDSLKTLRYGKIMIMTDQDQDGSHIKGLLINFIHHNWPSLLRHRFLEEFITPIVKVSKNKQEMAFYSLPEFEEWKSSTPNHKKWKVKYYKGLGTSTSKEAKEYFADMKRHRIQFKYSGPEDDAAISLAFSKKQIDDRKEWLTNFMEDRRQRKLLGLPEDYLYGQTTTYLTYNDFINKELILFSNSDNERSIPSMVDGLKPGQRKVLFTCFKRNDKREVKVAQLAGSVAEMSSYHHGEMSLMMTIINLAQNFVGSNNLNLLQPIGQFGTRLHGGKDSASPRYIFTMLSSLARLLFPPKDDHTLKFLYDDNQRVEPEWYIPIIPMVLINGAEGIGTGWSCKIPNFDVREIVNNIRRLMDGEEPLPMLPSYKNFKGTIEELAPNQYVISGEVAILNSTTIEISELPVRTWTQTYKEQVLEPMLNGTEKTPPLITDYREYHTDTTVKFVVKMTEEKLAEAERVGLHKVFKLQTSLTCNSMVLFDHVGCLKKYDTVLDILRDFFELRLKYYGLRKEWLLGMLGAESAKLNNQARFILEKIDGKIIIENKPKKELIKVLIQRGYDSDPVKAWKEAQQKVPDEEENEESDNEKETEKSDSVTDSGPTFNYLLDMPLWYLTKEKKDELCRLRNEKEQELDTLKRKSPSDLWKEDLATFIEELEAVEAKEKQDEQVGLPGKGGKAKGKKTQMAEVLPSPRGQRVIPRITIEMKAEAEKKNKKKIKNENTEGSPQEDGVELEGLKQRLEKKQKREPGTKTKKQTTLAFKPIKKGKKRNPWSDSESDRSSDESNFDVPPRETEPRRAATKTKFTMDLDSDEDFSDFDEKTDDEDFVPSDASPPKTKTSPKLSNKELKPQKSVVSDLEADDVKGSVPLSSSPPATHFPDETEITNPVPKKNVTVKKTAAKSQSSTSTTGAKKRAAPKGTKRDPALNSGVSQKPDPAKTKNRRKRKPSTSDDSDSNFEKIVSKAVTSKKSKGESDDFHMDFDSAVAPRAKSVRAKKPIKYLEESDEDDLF
T2 sequence (Q13547 whole entry): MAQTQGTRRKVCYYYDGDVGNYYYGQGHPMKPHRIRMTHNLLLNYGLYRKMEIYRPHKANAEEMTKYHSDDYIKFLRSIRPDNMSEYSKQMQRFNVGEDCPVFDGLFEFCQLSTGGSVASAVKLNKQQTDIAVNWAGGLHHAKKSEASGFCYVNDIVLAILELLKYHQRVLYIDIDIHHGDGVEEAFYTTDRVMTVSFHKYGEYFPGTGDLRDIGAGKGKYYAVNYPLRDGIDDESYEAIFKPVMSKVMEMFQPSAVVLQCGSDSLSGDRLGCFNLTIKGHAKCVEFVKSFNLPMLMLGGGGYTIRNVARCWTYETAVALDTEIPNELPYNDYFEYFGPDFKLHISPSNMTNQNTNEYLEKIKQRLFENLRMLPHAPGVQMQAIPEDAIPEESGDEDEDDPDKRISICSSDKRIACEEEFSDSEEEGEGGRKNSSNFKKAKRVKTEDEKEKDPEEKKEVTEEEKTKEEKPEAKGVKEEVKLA

Turning to `Cc1cn([C@H]2C[C@H](C3(c4ccc(NC(=O)CCCCCC(=O)NO)cc4)SCCCS3)[C@@H](CO[Si](C)(C)C(C)(C)C)O2)c(=O)[nH]c1=O`, the IC50 was 0.11 µM in test [1] and 0.9 µM in test [2]. The values for the GI50 in test [3], in test [4] and in test [5] were 15.4 µM, 20.9 µM and 17.4 µM, respectively.
In the case of `Cc1cn([C@H]2C[C@H](C3(c4ccc(NC(=O)CCCCCCC(=O)O)cc4)SCCCS3)[C@@H](CO[Si](C)(C)C(C)(C)C)O2)c(=O)[nH]c1=O`, in test [6], the inhibition entry is “inactive”. For the same compound, the IC50 was 12.3 µM in test [3], 15.5 µM in test [4] and 12.3 µM in test [5].
As to `CC(/C=C/C(=O)NO)=C\C(C)C(=O)c1ccc(C2([C@H]3CC(=O)O[C@@H]3CO[Si](C)(C)C(C)(C)C)SCCCS2)cc1` (stereo not given in full), the IC50 was determined as 1.2 µM in test [2] and 3 µM in test [7].
As for `Cc1cn([C@H]2C[C@H](C3(c4ccc(NC(=O)CCCCC(=O)NO)cc4)SCCCS3)[C@@H](CO[Si](C)(C)C(C)(C)C)O2)c(=O)[nH]c1=O`, the 50% inhibitory concentration (IC50) is 0.56 µM in test [1] and 2.5 µM in test [2]. In addition, the GI50 in test [3] was 5.5 µM; in test [4], 14.8 µM; in test [5] it was 26.3 µM.
Regarding `COc1ccc(C2([C@H]3C[C@H](n4cc(C)c(=O)[nH]c4=O)O[C@@H]3CO[Si](C)(C)C(C)(C)C)SCCCS2)cc1OC`, the IC50 was above 10 µM in test [1], above 10 µM in test [2] and 19.1 µM in test [7]. For the same compound, the results for the GI50 in test [3], in test [4] and in test [5] were 3.31 µM, 3.72 µM and 3.63 µM, respectively.
Regarding `COc1cc([C@@H]2c3cc4c(cc3[C@@H](O[C@@H]3O[C@@H]5CO[C@@H](C)O[C@H]5[C@H](O)[C@H]3O)[C@H]3COC(=O)[C@H]23)OCO4)cc(OC)c1O`, the inhibition entry in test [8] is “Active”.
Regarding `Cc1cn([C@@H]2C[C@H](C3(c4ccc(NC(=O)CCCCC(=O)NO)cc4)SCCCS3)[C@@H](CO[Si](C)(C)C(C)(C)C)O2)c(=O)[nH]c1=O`, the 50% inhibitory concentration (IC50) in test [1] amounted to 0.59 µM; in test [2] it was 2.8 µM. In addition, the GI50 in test [3] is 5.37 µM; in test [4] it was 49 µM; in test [5], 26.3 µM.
Consider `CC(C)(C)[Si](C)(C)OC[C@H]1OC(=O)C[C@@H]1C1(c2ccccc2)SCCCS1`, for which the IC50 in test [7] came out at 26.1 µM.
As to `Cc1cn([C@@H]2C[C@H](C3(c4ccc(NC(=O)CCCCCC(=O)NO)cc4)SCCCS3)[C@@H](CO[Si](C)(C)C(C)(C)C)O2)c(=O)[nH]c1=O`, the IC50 in test [1] was found to be 0.081 µM; in test [2], 0.59 µM. Moreover, the 50% growth inhibitory concentration (GI50) in test [3] turned out to be 17.8 µM; in test [4], 28.8 µM; in test [5], 14.8 µM.
Consider `COc1ccc(C2([C@H]3CC(=O)O[C@@H]3CO[Si](C)(C)C(C)(C)C)SCCCS2)cc1OC`, for which the IC50 in test [7] was found to be 55.3 µM.
